Experimental findings from patent US10736912B2, “Compositions containing PUFA and/or uridine and methods of use thereof” (MASSACHUSETTS INSTITUE OF TECHNOLOGY, priority 2005, dated 2020) are described below.

The experiment concerns PC-12 cells. The experiment is described as follows: 14C-choline incorporation into phospholipids in PC-12 cells. The format is cell-based. The procedure:
PC-12 cells were maintained in Dulbecco's modified Eagle's medium (DMEM)+10% fetal bovine serum (FBS). For experiments, cells were grown in quintuplicate collagen-coated 35 millimeter (mm) dishes. Cells were incubated for 18 hours (hr) in serum-free DMEM containing 28 μM choline+/−5 micromolar (μM) of DHA, oleic acid, or palmitic acid. Cells were then labeled for 2.5 hr with 0.5 microcurie (μCi)/ml ^14C-choline in serum-free DMEM containing 10-micromolar (μM) choline.
Cells were homogenized in 100 volumes of ice-cold deionized water using a tissue degrader (Polytron PT 10-35, Kinematica AG, Switzerland); 1 ml of aliquots were then mixed with 3 ml of chloroform+methanol mixture (2:1 v/v) and vortexed vigorously for 30 seconds. After cooling for 1 h on ice, the mixture was mixed sequentially with 3 ml of chloroform+methanol mixture (2:1 v/v) and 1 ml of ice-cold deionized water. The mixture was vortexed vigorously and allowed to stand overnight in the cold room (18 h). The organic (lower) and aqueous (upper) phases of the mixtures were separated by centrifugation (10 min at 4° C.; 1000 g). An aliquot (2 ml) of the upper phase was used for determination of CDP-Choline (see below), and 0.1-0.4 ml aliquots of the lower phase were dried under vacuum for phospholipid analysis. Residues of 0.1 ml aliquots of the lower phase were assayed for total phospholipid content by measuring phosphorus. Residues of 0.4 ml aliquots of the lower phase were reconstituted in 40 μl methanol and subjected to thin-layer chromatography using silica G plates (Adsorbosil Plus-1®, Alltech), and a system consisting of chloroform/ethanol/triethylamine/water (30:34:30:8) as the mobile phase. Phospholipid standards were used to identify the corresponding bands under UV light after the plates were sprayed with 0.1% diphenylhexatriene in petroleum ether. Bands for individual phospholipid classes (PC, PE, SM, PS and PI) were scraped off the plates and extracted into 1 ml of methanol; dried under vacuum; and assayed for phosphorus content. Total phosphorus was determined by comparison with standard curves by using KH2PO4 run with each assay. […] Absorbance was measured spectrophotometrically at 820 nm. Phospholipid mass was determined by multiplying the phosphorus content by 25.
In order to assess the effect of omega-3 fatty acids on phospholipid synthesis, PC-12 cells were incubated with ^14C-labeled choline, following an 18-hour pre-incubation with or without DHA. Incorporation of label into phospholipids was then measured. […]
To further characterize the stimulation of phospholipid synthesis by omega-3 fatty acids, PC-12 cells were pre-treated with different doses of DHA and exposed to labeled choline as described in Example 1, then incorporation of ^14C-label into phospholipids was measured. […]

As for `CCC=CCC=CCC=CCC=CCC=CCC=CCCC(=O)O` [DHA, 4,7,10,13,16,19-docosahexaenoic acid], the “Phosphatidylcholine (PC) synthesis significantly increased (incorporation of 14C label into PC)” value (5 μM fatty acid, 18 hr pre-incubation, then 14C-choline 2.5 hr, FIG. 1) was “significantly increased”. Further, the “Augmentation of phospholipid synthesis” value (different doses of DHA, FIG. 2) is given as “dose-dependent”.
